From paper PMC7036909, “Discovery of Selective SIRT2 Inhibitors as Therapeutic Agents in B-Cell Lymphoma and Other Malignancies” (Molecules, 2020)
Values joined by “and” are separate entries in the source; they are usually repeats but may differ in a detail not shown here. Equal values may be shown once.

What was measured:
[1] = system: Daudi (Burkitt lymphoma) cells; assay: Cell viability (CellTiter-Glo), Daudi; format: cell-based; details: Homo sapiens, 72 h, cellular ATP, read-out: Daudi LC50
Protocol: (§1) With selective SIRT2 inhibitors in hand, we proceeded to evaluate cytotoxicity of our compounds in Daudi, Raji (Burkitt lymphoma) and OCI-Ly8-LAM-53 (OCI, a representative of several Diffuse Large B-Cell Lymphoma lines; DLBCL) cell lines. Briefly, cells were plated in 96-well plates and treated with inhibitors at desired concentrations for 72 h. Cellular viability was determined by measuring the amount of cellular ATP using CellTiter-Glo assay kit (Promega) and normalized against DMSO-treated controls. […] Selected inhibitors were further evaluated in an expanded panel of cancer cell lines including breast cancer (MCF-7 and MDA-MB231), prostate cancer (PC-3) and glioblastoma multiforme (U-251). […] However, the trend in potency as a function of the structure is consistent with the results obtained against lymphoma cell lines. […] . Cell lines were obtained from ATCC (Manassas, VA, USA) and were grown under standard conditions as recommended. For viability assays, 3000 cells per well were dispensed into 96-well plates and treated with test compounds (final DMSO concentration 0.25%). Cells were incubated with test compounds (or DMSO controls) for 72 h or 5 days as noted at 37 °C in 5% CO2 and viability was determined using the CellTiter-Glo Assay (Promega Corp.) according to manufacturer’s instructions.

[2] = system: Raji (Burkitt lymphoma) cells; assay: Cell viability (CellTiter-Glo), Raji; format: cell-based; details: Homo sapiens, 72 h, cellular ATP, read-out: Raji LC50
Protocol: as §1

[3] = system: OCI-Ly8-LAM-53 (OCI, DLBCL) cells; assay: Cell viability (CellTiter-Glo), OCI; format: cell-based; details: 72 h, cellular ATP; read-out: OCI LC50
Protocol: as §1

SIRT1 = target: T1, SIRT1 (Homo sapiens, UniProt Q96EB6); assay: SIRT-Glo enzyme inhibition assay, SIRT1; details: for inhibition at 50 µM: read-out: SIRT1 percentage inhibition at 50 µM compound, 50 µM compound
T1 sequence (Q96EB6 1-747): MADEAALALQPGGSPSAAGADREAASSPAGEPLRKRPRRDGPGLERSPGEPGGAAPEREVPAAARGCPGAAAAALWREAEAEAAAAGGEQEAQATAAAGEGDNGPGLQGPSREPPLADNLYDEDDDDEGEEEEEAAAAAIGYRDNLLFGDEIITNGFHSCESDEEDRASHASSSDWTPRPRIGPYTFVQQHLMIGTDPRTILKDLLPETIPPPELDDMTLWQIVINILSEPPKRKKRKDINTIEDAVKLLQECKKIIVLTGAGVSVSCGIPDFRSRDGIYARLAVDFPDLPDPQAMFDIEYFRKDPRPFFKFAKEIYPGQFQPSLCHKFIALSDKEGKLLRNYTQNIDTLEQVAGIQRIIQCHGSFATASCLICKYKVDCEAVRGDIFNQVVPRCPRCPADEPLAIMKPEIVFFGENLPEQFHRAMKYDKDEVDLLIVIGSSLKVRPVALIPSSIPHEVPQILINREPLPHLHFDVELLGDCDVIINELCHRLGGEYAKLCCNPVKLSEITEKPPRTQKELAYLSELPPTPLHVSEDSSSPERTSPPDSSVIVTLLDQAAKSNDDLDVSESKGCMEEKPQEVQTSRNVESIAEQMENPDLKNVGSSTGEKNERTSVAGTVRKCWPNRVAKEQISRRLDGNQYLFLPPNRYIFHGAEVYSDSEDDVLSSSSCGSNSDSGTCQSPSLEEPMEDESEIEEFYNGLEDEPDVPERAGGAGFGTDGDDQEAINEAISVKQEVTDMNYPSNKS
Protocol: (§2) SIRT1, SIRT2, and SIRT3 were purchased from Cayman Chemical. Enzyme inhibition assays were performed in 96-well black plates using the SIRT-Glo Assay (Promega Corp.) according to the manufacturer’s instructions. Compounds were dissolved in 100% DMSO and to make 5- or 10-mM stock solutions. For initial enzyme inhibition tests, 50 µM of inhibitory concentration was used. […] IC50 values were determined in triplicate and reported values are averages of two independent experiments.

SIRT2 = target: T2, SIRT2 (Homo sapiens, UniProt Q8IXJ6); assay: SIRT-Glo enzyme inhibition assay, SIRT2; details: for IC50: SIRT2 IC50; for inhibition at 50 µM: read-out: SIRT2 percentage inhibition at 50 µM compound, 50 µM compound
T2 sequence (Q8IXJ6 1-389): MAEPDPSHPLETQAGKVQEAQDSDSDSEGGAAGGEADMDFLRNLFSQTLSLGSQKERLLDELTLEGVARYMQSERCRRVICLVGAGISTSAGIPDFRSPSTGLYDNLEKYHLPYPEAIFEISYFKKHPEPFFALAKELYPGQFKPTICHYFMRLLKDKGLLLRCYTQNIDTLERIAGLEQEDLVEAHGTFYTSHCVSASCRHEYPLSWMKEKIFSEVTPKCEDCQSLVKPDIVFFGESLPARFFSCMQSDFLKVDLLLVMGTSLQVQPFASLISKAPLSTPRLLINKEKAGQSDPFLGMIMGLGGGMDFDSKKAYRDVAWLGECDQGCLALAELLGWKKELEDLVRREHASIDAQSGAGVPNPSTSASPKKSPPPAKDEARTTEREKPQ
Protocol: as §2

SIRT3 = target: T3, SIRT3 (Homo sapiens, UniProt Q9NTG7); assay: SIRT-Glo enzyme inhibition assay, SIRT3; details: for inhibition at 50 µM: read-out: SIRT3 percentage inhibition at 50 µM compound, 50 µM compound
T3 sequence (Q9NTG7 1-399): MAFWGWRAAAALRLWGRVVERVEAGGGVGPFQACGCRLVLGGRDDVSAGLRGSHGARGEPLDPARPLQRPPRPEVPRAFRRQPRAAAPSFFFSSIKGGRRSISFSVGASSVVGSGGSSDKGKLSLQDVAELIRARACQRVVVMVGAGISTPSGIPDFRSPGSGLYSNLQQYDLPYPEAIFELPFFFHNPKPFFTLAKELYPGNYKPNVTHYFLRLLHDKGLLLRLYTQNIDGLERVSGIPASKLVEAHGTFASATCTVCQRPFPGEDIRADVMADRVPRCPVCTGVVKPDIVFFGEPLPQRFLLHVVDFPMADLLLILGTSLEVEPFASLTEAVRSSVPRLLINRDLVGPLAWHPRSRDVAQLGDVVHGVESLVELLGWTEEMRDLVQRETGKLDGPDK
Protocol: as §2

OCI DLBCL cells = assay: Annexin V staining assay; details: 5 µM
Protocol: OCI DLBCL cells were treated with 56 for 24 h. Cells were lysed and analyzed by western blot assay for cleaved poly-ADP-ribose polymerase (PARP), a well-accepted apoptosis marker [42] (Abcam, Cambridge, UK).

NC(=O)C(Cc1c(O)ccc2cc(Br)ccc12)C(=O)c1ccc(Cl)cc1 (centres unmarked) [Compound 19, 2-[(6-Bromo-2-hydroxynaphthalen-1-yl)methyl]-3-(4-chlorophenyl)-3-oxopropanamide] gave a CC50 [1] of 5 µM, a CC50 [2] of 7.3 µM and a CC50 [3] of 8.2 µM. For the same compound, the inhibition at 50 µM (SIRT1) was 0%, the IC50 (SIRT2) was 2.79 µM and 2.8 µM and the inhibition at 50 µM (SIRT2) was 95%. It also gave an inhibition at 50 µM (SIRT3) of 30%.
In the case of NC(=O)C(Cc1c(O)ccc2cc(Br)ccc12)C(=O)c1ccc(C(F)(F)F)cc1 (centres unmarked) [Compound 20, 2-[(6-Bromo-2-hydroxynaphthalen-1-yl)methyl]-3-(4-trifluoromethylphenyl)-3-oxopropanamide], the inhibition at 50 µM (SIRT1) is reported as 0%, the IC50 (SIRT2) is reported as 1.9 µM and the inhibition at 50 µM (SIRT2) is reported as 100%. It also gave an inhibition at 50 µM (SIRT3) of 5%.
Work on NC(=O)C(Cc1c(O)ccc2cc(Br)ccc12)C(=O)c1cccc(C(F)(F)F)c1 (centres unmarked) [Compound 21, 2-[(6-Bromo-2-hydroxynaphthalen-1-yl)methyl]-3-(3-trifluoromethylphenyl)-3-oxopropanamide] yielded an inhibition at 50 µM (SIRT1) of 0%, an IC50 (SIRT2) of 12.6 µM and an inhibition at 50 µM (SIRT2) of 89%. It also gave an inhibition at 50 µM (SIRT3) of 15%.
For NC(=O)C(Cc1c(O)ccc2cc(Br)ccc12)C(=O)c1ccc(Br)cc1 (centres unmarked) [Compound 22, 2-[(6-Bromo-2-hydroxynaphthalen-1-yl)methyl]-3-(4-bromo)-3-oxopropanamide], the CC50 [1] was 7 µM, the CC50 [2] was 7.8 µM and the CC50 [3] was 1.6 µM. The inhibition at 50 µM (SIRT1) was 7%, the IC50 (SIRT2) was 2.5 µM and the inhibition at 50 µM (SIRT2) was 93%. For the same compound, the inhibition at 50 µM (SIRT3) was 42%.
In the case of NC(=O)C(Cc1c(O)ccc2cc(Br)ccc12)C(=O)c1cccc(Br)c1 (centres unmarked) [Compound 23, 2-[(6-Bromo-2-hydroxynaphthalen-1-yl)methyl]-3-(3-bromo)-3-oxopropanamide], the inhibition at 50 µM (SIRT1) is reported as 53%, the IC50 (SIRT2) is reported as 8.95 µM and the inhibition at 50 µM (SIRT2) is reported as 91%. It also gave an inhibition at 50 µM (SIRT3) of 41%.
With NC(=O)C(Cc1c(O)ccc2cc(Br)ccc12)C(=O)c1ccc(F)cc1 (centres unmarked) [Compound 25, 2-[(6-Bromo-2-hydroxynaphthalen-1-yl)methyl]-3-(4-fluoro)-3-oxopropanamide] the inhibition at 50 µM (SIRT1) was 35%, the IC50 (SIRT2) was 12.4 µM and the inhibition at 50 µM (SIRT2) was 96%. It also gave an inhibition at 50 µM (SIRT3) of 39%.
CNC(=O)C(Cc1c(O)ccc2cc(Br)ccc12)C(=O)c1ccc(C(F)(F)F)cc1 (centres unmarked) [Compound 33, 2-[(6-Bromo-2-hydroxynaphthalen-1-yl)methyl]-N-methyl-3-oxo-3-[4-(trifluoromethyl)phenyl]propenamide] gave a CC50 [1] of 14.5 µM, a CC50 [2] of 18.5 µM and a CC50 [3] of 16.4 µM. It also gave an IC50 (SIRT2) of 0.59 µM, an inhibition at 50 µM (SIRT2) of 97% and an inhibition at 50 µM (SIRT3) of 6%.
In the case of O=C(NCCO)C(Cc1c(O)ccc2cc(Br)ccc12)C(=O)c1cccc(Br)c1 (centres unmarked) [Compound 36, 2-[(6-Bromo-2-hydroxynaphthalen-1-yl)methyl]-3-(3-bromophenyl)-N-(2-hydroxyethyl)-3-oxopropanamide], the inhibition at 50 µM (SIRT1) is reported as 0%, the IC50 (SIRT2) is reported as 4.75 µM and the inhibition at 50 µM (SIRT2) is reported as 94%. The inhibition at 50 µM (SIRT3) was 43%.
Work on O=C(NCCCO)C(Cc1c(O)ccc2cc(Br)ccc12)C(=O)c1cccc(Br)c1 (centres unmarked) [Compound 37, 2-[(6-Bromo-2-hydroxynaphthalen-1-yl)methyl]-3-(3-bromophenyl)-N-(3-hydroxypropyl)-3-oxopropanamide] yielded an inhibition at 50 µM (SIRT1) of 28%, an IC50 (SIRT2) of 7.62 µM and an inhibition at 50 µM (SIRT2) of 86%. For the same compound, the inhibition at 50 µM (SIRT3) was 46%.
NC(=O)CCNC(=O)C(Cc1c(O)ccc2cc(Br)ccc12)C(=O)c1cccc(Br)c1 (centres unmarked) [Compound 43, 2-[(6-Bromo-2-hydroxynaphthalen-1-yl)methyl]-3-(3-bromophenyl)-N-(2-carbamoylethyl)-3-oxopropanamide] was tested, and the CC50 [1] was 15.8 µM, the CC50 [2] was 19.4 µM and the inhibition at 50 µM (SIRT1) was 0%. For the same compound, the IC50 (SIRT2) was 0.96 µM, the inhibition at 50 µM (SIRT2) was 89% and the inhibition at 50 µM (SIRT3) was 20%.
With CNC(=O)CCNC(=O)C(Cc1c(O)ccc2cc(Br)ccc12)C(=O)c1cccc(Br)c1 (centres unmarked) [Compound 44, 2-[(6-Bromo-2-hydroxynaphthalen-1-yl)methyl]-3-(3-bromophenyl)-N-[2-(methylcarbamoyl)ethyl]-3-oxo-propanamide] the inhibition at 50 µM (SIRT1) was 0%, the IC50 (SIRT2) was 6.5 µM and the inhibition at 50 µM (SIRT2) was 98%.
With CN1CCN(C(=O)C(Cc2c(O)ccc3cc(Br)ccc23)C(=O)c2ccc(C(F)(F)F)cc2)CC1 (centres unmarked) [Compound 45, 2-[(6-Bromo-2-hydroxynaphthalen-1-yl)methyl]-1-(4-methylpiperazin-1-yl)-3-[4-(trifluoromethyl)phenyl]-propane-1,3-dione] the inhibition at 50 µM (SIRT1) was 10% and the inhibition at 50 µM (SIRT2) was 88%.
O=C(NCCO)C(Cc1c(O)ccc2cc(Br)ccc12)C(=O)c1ccc(Cl)cc1 (centres unmarked) [Compound 47, 2-[(6-Bromo-2-hydroxynaphthalen-1-yl)methyl]-3-(4-chlorophenyl)-N-(2-hydroxyethyl)-3-oxopropanamide] was tested, and the CC50 [2] was 20.2 µM, the CC50 [3] was 9.7 µM and the inhibition at 50 µM (SIRT1) was 0%. The IC50 (SIRT2) was 0.96 µM, the inhibition at 50 µM (SIRT2) was 98% and the inhibition at 50 µM (SIRT3) was 5%.
NC(=O)CCNC(=O)C(Cc1c(O)ccc2cc(Br)ccc12)C(=O)c1ccc(Cl)cc1 (centres unmarked) [Compound 50, 2-[(6-Bromo-2-hydroxynaphthalen-1-yl)methyl]-N-(2-carbamoylethyl)-3-(4-chlorophenyl)-3-oxopropanamide] gave a CC50 [2] of 19.9 µM, a CC50 [3] of 11.7 µM and an inhibition at 50 µM (SIRT1) of 4%. For the same compound, the IC50 (SIRT2) was 0.65 µM, the inhibition at 50 µM (SIRT2) was 99% and the inhibition at 50 µM (SIRT3) was 17%.
NC(=O)CCNC(=O)C(Cc1c(O)ccc2cc(Br)ccc12)C(=O)c1cccc(C(F)(F)F)c1 (centres unmarked) [Compound 53] was tested, and the “selectivity for SIRT2 over SIRT1” value (SIRT1; SIRT2 versus SIRT1) was greater than 400 fold, the inhibition at 50 µM (SIRT1) was 8% and the IC50 (SIRT2) was 1.57 µM. For the same compound, the inhibition at 50 µM (SIRT2) was 91%, the “selectivity for SIRT2 over SIRT3” value (SIRT3; SIRT2 versus SIRT3) was greater than 800 fold and the inhibition at 50 µM (SIRT3) was 16%.
COc1cc([C@@H]2c3cc4c(cc3[C@@H](O[C@@H]3O[C@@H]5CO[C@@H](C)O[C@H]5[C@H](O)[C@H]3O)[C@H]3COC(=O)[C@H]23)OCO4)cc(OC)c1O [Etoposide, etoposide, reference compound] was tested, and the “Q1 (necrotic cell death) cell population” value (OCI DLBCL cells) was 5.1%, the “Q2 (apoptotic cells) cell population” value (OCI DLBCL cells) was 59.8% and the Q3 cell population (OCI DLBCL cells) was 26.8%. For the same compound, the Q4 cell population (OCI DLBCL cells) was 8.3%.
